# Measurements taken from patent US9139519B2, “Organonitro thioether compounds and medical uses thereof” (EPICENTRX, INC., priority 2011, dated 2015).
# Columns and labels:
# SCCVII tumor = assay: Anti-cancer assay: SCCVII tumor volume in C3H mice; format: in vivo; conditions: male C3H mice with subcutaneous SCCVII tumors; 1.15 mg/mL in 5% DMSO/water, intraperitoneal, q.o.d. on Days 0, 2 and 4 (3 doses)
# Description: Mice with SCC VII tumors were treated with Compound 1, which has the following chemical structure.
# The Treatment Composition was Compound 1 in a water/DMSO carrier. The Treatment Composition was prepared by dissolving 2.3 mg of Compound 1 in 0.1 mL of DMSO and mixing the resultant solution with 1.9 mL of water to provide a solution containing 1.15 mg/mL of Compound 1. The concentration of dimethylsulfoxide (DMSO) in the Treatment Composition was 5%.
# Male C3H mice were obtained from Charles River Laboratories and maintained under specific pathogen-free conditions. Mice were housed five animals per cage and autoclaved food and water was provided ad libitum. Cages were located in rooms having a temperature of 65±2 degrees Fahrenheit, a humidity of 50%±5%, and a 12-hour day-and-night light cycle. Mice were 7-8 weeks old, with a body weight in the range of 22-25 grams, at the time inoculated with tumor cells.
# Mice were inoculated subcutaneously with 5×10^5 SCCVII tumor cells in 0.05 mL Hank's solution on the back. […] The length and width of the tumors were measured with calipers immediately before treatment and three times a week thereafter until the tumor volume reached at least four times (4×) the original pre-treatment volume. Tumor volume (mm^3) was calculated according to the formula: Tumor Volume=π/6×length×width^2 Part II: Results
# [1] = Toxicity evaluation in healthy rats; format: in vivo; conditions: for Clinical observations: femoral vein infusion
# Description: Compound 1 was administered to healthy rats and the rats were evaluated for evidence of toxic side effects due to Compound 1. Experimental procedures and results are described below.
# Two groups of 3 male rats each were given a 100 or 300 mg/kg dose of Compound 1 prepared in 0.9% saline solution. A third group of 3 rats were given saline alone. Doses were delivered via a femoral vein. The 100 mg/kg dose was delivered using a 10 mg/mL solution at a dose volume of 10 mL/kg and an infusion rate of 15 mL/hr. The 300 mg/kg dose was delivered using a 20 mg/mL solution at a dose volume of 15 mL/kg and an infusion rate of 15 mL/hr.
smiles,measurement,setting,value
N[C@@H](CSCC(=O)N1CC([N+](=O)[O-])([N+](=O)[O-])C1)C(=O)O [Compound 1],Tumor volume versus untreated control,SCCVII tumor,smaller than tumors in mice that did not receive the Treatment Composition
same,Toxicity (overall conclusion),"[1]; healthy male rats, 100 or 300 mg/kg in 0.9% saline via femoral vein, observed for 24 hours",no significant toxicity was observed
same,Clinical observations,"[1]; rats, 100 mg/kg dose, observed for 24 hours",No notable clinical observations
same,Clinical observations,"[1]; rats, 300 mg/kg dose, observed for 24 hours",pale during the first 3 hours post dose
same,Gross changes in the lungs at necropsy,"[1]; rats, 100 or 300 mg/kg, necropsy after 24 hours",no gross changes in the lungs
same,Kidney observation at necropsy,"[1]; rats, 100 or 300 mg/kg, necropsy after 24 hours, significance undetermined",Mottled kidneys were observed in most rats
